What was measured:
[1] = biological target: T1, Nitric oxide synthase, inducible (Homo sapiens, UniProt P35228); assay: Inhibition of human recombinant iNOS by microtiter plate assay
Nitric oxide synthase 3 = biological target: T2, Nitric oxide synthase 3 (Homo sapiens, UniProt P29474); assay: Inhibition of human recombinant eNOS by microtiter plate assay
T2 sequence (P29474 whole entry): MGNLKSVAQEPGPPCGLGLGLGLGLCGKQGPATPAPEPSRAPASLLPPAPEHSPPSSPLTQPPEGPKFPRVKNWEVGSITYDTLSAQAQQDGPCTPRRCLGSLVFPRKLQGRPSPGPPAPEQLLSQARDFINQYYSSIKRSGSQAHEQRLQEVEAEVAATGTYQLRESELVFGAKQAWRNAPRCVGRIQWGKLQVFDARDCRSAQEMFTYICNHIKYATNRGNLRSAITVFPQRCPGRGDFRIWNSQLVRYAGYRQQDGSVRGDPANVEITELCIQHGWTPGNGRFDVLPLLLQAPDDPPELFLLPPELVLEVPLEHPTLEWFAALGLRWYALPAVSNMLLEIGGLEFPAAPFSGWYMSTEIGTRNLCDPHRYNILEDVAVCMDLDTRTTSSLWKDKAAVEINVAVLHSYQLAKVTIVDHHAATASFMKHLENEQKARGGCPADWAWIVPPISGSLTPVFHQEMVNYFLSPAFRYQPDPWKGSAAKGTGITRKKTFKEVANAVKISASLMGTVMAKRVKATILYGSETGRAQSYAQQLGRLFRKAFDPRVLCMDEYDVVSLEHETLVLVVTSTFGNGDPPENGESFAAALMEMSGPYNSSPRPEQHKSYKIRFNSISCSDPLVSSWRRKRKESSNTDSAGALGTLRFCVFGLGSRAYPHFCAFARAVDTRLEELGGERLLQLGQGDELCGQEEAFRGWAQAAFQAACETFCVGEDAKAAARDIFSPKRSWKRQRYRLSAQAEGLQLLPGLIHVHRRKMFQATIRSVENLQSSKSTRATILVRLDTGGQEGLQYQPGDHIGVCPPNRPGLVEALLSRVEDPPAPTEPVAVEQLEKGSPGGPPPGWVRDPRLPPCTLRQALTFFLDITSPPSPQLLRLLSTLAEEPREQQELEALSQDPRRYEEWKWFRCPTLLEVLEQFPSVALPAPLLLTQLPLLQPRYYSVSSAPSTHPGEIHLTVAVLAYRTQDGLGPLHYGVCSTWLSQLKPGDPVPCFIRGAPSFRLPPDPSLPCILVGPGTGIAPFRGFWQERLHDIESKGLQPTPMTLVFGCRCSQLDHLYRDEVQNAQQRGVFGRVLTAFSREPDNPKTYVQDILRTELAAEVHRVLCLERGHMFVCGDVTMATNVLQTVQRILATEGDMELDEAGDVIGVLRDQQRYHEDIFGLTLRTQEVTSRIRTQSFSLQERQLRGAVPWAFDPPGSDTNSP

Nitric oxide synthase 1 = Nitric oxide synthase 1 (Homo sapiens, UniProt P29475); assay: Inhibition of human recombinant nNOS by microtiter plate assay
Sequence of Nitric oxide synthase 1 (P29475 whole entry): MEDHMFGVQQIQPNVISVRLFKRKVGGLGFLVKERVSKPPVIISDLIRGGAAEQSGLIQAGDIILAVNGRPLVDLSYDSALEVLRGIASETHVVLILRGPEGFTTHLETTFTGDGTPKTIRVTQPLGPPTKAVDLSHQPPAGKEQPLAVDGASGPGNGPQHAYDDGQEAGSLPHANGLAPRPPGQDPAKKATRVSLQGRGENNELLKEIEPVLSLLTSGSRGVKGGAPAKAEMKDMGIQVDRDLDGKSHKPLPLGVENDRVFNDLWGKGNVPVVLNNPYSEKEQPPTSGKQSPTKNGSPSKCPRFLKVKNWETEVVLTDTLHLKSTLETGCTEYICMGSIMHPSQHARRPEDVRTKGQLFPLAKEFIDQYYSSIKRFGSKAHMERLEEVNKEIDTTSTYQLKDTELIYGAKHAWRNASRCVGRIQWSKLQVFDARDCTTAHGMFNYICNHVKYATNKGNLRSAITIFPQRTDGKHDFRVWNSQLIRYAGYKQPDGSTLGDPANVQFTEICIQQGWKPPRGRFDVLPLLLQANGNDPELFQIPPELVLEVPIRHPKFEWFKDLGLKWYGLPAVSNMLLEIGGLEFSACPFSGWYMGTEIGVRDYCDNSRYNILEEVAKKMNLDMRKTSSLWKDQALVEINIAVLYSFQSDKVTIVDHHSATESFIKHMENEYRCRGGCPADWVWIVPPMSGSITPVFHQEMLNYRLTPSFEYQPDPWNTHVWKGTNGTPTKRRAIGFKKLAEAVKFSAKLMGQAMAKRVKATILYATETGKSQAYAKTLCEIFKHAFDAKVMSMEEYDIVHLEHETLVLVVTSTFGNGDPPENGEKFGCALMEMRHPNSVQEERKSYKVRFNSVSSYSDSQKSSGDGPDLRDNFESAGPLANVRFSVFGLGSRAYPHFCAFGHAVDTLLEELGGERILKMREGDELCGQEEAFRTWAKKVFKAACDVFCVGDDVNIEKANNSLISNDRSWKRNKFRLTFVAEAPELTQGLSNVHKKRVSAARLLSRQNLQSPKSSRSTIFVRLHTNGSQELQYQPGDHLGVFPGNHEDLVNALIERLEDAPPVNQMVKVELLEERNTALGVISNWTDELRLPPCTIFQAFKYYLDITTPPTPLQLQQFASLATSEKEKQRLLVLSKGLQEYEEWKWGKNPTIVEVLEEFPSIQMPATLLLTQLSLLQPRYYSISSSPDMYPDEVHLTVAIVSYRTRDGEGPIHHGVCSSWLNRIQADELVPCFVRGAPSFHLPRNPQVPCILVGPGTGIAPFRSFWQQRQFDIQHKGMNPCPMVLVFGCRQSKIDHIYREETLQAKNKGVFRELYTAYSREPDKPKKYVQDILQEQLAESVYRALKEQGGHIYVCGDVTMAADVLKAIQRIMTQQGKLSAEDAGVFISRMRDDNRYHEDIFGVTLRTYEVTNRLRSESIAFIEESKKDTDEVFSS

[2] = biological target: T1, Nitric oxide synthase, inducible; assay: Binding affinity to human recombinant iNOS delta 65 residue

T1 sequence (P35228 whole entry): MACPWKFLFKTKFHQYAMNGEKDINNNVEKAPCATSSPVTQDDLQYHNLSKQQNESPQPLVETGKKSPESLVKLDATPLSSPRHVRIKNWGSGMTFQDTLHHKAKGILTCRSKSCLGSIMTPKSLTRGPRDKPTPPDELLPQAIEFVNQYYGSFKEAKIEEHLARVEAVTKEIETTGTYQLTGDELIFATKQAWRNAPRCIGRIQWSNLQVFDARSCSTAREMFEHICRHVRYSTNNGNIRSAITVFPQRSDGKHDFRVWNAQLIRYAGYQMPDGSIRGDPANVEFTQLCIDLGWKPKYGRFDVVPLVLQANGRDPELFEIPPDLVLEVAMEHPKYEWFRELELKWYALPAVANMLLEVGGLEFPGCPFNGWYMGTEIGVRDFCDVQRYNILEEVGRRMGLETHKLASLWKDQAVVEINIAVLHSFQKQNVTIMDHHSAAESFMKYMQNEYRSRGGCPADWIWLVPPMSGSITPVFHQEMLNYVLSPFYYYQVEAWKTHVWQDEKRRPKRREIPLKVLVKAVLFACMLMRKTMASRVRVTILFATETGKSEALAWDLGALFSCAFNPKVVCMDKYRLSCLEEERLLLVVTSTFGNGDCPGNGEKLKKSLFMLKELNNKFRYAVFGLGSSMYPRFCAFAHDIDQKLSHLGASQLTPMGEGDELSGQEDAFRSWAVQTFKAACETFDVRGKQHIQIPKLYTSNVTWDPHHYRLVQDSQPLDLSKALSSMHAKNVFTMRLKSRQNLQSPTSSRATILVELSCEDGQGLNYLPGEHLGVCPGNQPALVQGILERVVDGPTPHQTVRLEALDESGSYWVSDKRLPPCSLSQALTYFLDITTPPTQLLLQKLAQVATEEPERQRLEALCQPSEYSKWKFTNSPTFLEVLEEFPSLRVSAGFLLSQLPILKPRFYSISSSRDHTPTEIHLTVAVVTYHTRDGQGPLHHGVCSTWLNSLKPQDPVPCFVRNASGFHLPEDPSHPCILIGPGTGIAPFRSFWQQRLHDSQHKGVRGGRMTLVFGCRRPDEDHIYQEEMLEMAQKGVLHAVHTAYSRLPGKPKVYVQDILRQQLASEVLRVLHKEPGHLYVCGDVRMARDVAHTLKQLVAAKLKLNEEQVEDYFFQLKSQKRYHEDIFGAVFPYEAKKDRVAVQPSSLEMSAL

Row | SMILES | IC50 [1] | IC50 (Nitric oxide synthase 3) | IC50 (Nitric oxide synthase 1) | Kd [2]
1 | N=C(N)C1CCCCN1 (stereo not given) | > 100000 nM | – | – | –
2 | N=C(N)C1C=CCN1 (stereo not given) | 180 nM | – | – | –
3 | N=C(N)[C@H]1CCCN1 | 120 nM | 15000 nM | 14000 nM | 630 nM
4 | N=C(N)C1CC1 [CYCLOPROPANECARBOXIMIDAMIDE] | 790 nM | – | – | –
5 | N=C(N)C1CCNCC1 | 58000 nM | – | – | –
6 | N=C(N)C1CNC1 | 14000 nM | – | – | –
7 | N=C(N)[C@H]1CCN1 | 30 nM | 250 nM | 260 nM | –
8 | N=C(N)[C@@H]1CCN1 | 200 nM | 2400 nM | 1700 nM | –
9 | N=C(N)C1CCC1 [CYCLOBUTANECARBOXIMIDAMIDE] | 380 nM | – | – | –
10 | N=C(N)C1CCCNC1 (stereo not given) | 51000 nM | – | – | –
11 | N=C(N)C1CCCS1 (stereo not given) | 5300 nM | – | – | –
12 | N=C(N)[C@@H]1CCCN1 | 9400 nM | > 100000 nM | > 100000 nM | > 40000 nM
13 | N=C(N)C1CCCN1 (stereo not given) | 700 nM | – | – | –
14 | N=C(N)C1CCCO1 (stereo not given) | 8900 nM | – | – | –
15 | [H]/N=C(/N)C1CCCC1 [CYCLOPENTANECARBOXIMIDAMIDE] | 4400 nM | – | – | –

Source: ChEMBL document CHEMBL1781991, “Heteroalicyclic carboxamidines as inhibitors of inducible nitric oxide synthase; the identification of (2R)-2-pyrrolidinecarboxamidine as a potent and selective haem-co-ordinating inhibitor” (Bioorg Med Chem Lett, 2011)
